# From patent US6664088B2, “Production of vanillin” (Plant Bioscience Limited, priority 1996, dated 2003)
# Read-outs that look alike come from different tables or passages of the source.
# Tests used:
# [1] = target: T1, trans-feruloyl SCoA hydratase/aldol cleavage enzyme (Pseudomonas fluorescens, UniProt O69762); assay: trans-feruloyl SCoA hydratase/aldol cleavage enzyme activity, reaction products by HPLC; type: biochemical; conditions: 30° C., 0.4 mM substrate, 2.8 μg enzyme partially purified by Mono-Q and Mono-P
# T1 construct: Purification from cells of Ps. fluorescens biovar V, strain AN103, was; endogenous in cells; host or cells: Ps. fluorescens biovar; V strain AN103 grown on trans-ferulate (crude extract, then Mono Q, Mono P, PhenylSuperose); also crude extract of E. coli JM109(DE3) with the gene in pSP72
# T1 sequence (O69762 2-276): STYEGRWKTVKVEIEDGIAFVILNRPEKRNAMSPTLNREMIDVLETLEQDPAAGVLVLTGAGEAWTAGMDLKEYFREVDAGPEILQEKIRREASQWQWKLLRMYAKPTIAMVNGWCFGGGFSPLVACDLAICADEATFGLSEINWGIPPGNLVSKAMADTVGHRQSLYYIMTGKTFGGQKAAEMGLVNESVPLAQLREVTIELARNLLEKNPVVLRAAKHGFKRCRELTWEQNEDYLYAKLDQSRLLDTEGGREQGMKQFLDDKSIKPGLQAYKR
# Description: At each stage of purification, active fractions were detected by a micro-adaptation of the assay with HMPHP SCoA described above (Example 2); reactions were performed in 100 μl of reaction mixture for ca. 4 min at room temperature in microtitre wells and absorbance was then measured in an MR 5000 microtitre plate reader (Dynatech, Guernsey, Channel Islands), equipped with a 340 nm filter. The activity of the pooled fractions was measured using HPLC to determine the reaction products of both HMPHP SCoA, (0.4 mM) and trans-feruloyl SCoA (0.28 mM) as substrates. […] The proportionality of the reactions with time and with quantity of enzyme was established in preliminary determinations.
# E. coli cells were grown at 37° C. for 3 h in 50 ml of L medium, containing ampicillin (50 μg/ml) with and without induction by IPTG. Extracts were prepared as described above in Example 2 for Ps. fluorescens AN103, but without centrifugation. The crude extract was used for assay. Enzyme activity with both HMPHP SCoA and trans-feruloyl ScoA was determined as described above in Example 4 using HPLC to determine the reaction products. […] There was no activity with either trans-feruloyl SCoA or HMPHP SCoA in extracts of an unmanipulated E. coli strain, whether induced or not. In the manipulated strain E. coli 1039 that expresses the Pseudomonas gene the specific activity was slightly lower in the exLract made following induction than in that made from uninduced bacteria. […] It was not possible to detect expression of the 31 kD protein visually on Coomassie-stained, one-dimensional SDS gels because of its co-migration with the strongly expressed β-lactamase encoded by the vector ampicillin resistance marker.
# [2] = system: enzyme activities I, II and III from Ps. fluorescens biovar V, strain AN103; assay: Use of cinnamates as substrates by enzyme activities I, II and III; type: biochemical, Pseudomonas fluorescens; conditions: AN103 enzymes
# [3] = system: Ps. fluorescens biovar. V, strain AN103; assay: Relative growth of strain AN103 on a range of carbon substrates (absorbance at 600 nm); type: cell-based, Pseudomonas fluorescens; conditions: for activity at 10000 µM: read-out: Relative Growth (%)
# Description: KH2PO4, 5 g; […] FeSO4, 0.5 mg; CaCl2, 0.5 mg; MnCl2.5H2O, 5 mg; (NH4)6Mo2O7.4H2O, 1.1 mg; MgSO4, 5 mg; EDTA, 50 mg; […] The pH was 7.0. Carbon sources were included as indicated. […] Growth was monitored by measuring absorbance at 550 or 600 nm. [table]
# [4] = system: cell-free extract of strain AN103; assay: Incubation of CoASH thioesters with cell-free extract; type: biochemical, Pseudomonas fluorescens
# Description: (§1) Cell-free extracts were routinely incubated at 30° C. and pH 7.5 in a reaction mixture (1 ml) containing 90 mM Tris HCl buffer and 2.5 mM MgCl2, together with (as appropriate) 0.5 mM trans-ferulic acid, 0.2 mM CoASH (Li salt) and 2.5 mM ATP. This complete reaction mixture constituted an assay for trans-ferulate: CoASH ligase, where the initial increase in absorbance at 345 nm was monitored against a blank reaction mixture from which CoASH was omitted. Incubations with HMPHP SCoA (generally 0.4 mM) were performed similarly, but with the omission of trans-ferulic acid, CoASH and ATP.
# Metabolites of trans-ferulic acid, including the CoASH thioesters, were analysed and quantitated by HPLC using a Lichrosorb RP-18 column (20 cm×4.6 mm; Capital HPLC, Broxburn, West Lothian, UK) with a multiphasic gradient; solvent “A” was 20 mM NaOAc, adjusted to pH 6.0 and solvent“B” was MeOH; the flow rate was 1.2 ml/min; the proportion of solvent “B” rose linearly from 0% at 0 min to 10% at 15 min and thence to 50% at 40 min and 70% at 45 min, finally decreasing to 0% at 50 min. Detection was with a Spectra Focus detector (Thermo Separation Products, Stone, Staffs. UK), which permitted u/v spectral analysis of each eluting component.
# [5] = target: T2, Vanillin: NAD+ oxidoreductase (Pseudomonas fluorescens, UniProt O69763); assay: Vanillin:NAD+ oxidoreductase assay, decrease in absorbance at 340 nm; type: biochemical; conditions: gene expressed in E. coli strain DH5 from pUC18
# T2 construct: endogenous in cells; host or cells: Ps. fluorescens AN103 / van 1 / van 10 cell-free extracts; also E. coli DH5 carrying pUC18 with the full-length ORF
# T2 sequence (O69763 whole entry): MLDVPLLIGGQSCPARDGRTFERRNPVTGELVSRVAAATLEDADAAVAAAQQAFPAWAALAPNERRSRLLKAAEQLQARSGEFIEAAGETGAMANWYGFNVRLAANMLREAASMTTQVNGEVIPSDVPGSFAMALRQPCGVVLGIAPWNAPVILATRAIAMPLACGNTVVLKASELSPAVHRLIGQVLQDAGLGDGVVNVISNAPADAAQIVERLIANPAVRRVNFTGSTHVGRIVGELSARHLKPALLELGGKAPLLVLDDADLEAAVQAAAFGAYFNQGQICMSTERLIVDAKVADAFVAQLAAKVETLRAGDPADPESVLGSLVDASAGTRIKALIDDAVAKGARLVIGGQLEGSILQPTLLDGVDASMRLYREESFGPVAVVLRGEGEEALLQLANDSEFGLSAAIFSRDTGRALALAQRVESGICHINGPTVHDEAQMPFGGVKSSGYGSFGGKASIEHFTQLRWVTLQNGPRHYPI
# Description: Vanillin: NAD^+ oxidoreductase was assayed at 30° C. and pH 7.0 by monitoring the initial decrease in absorbance at 340 nm against a blank cuvette from which NAD^+ was omitted. Because of the similarity in extinction coefficient at 340 nm for vanillin and for NADH, the sensitivity of the assay was increased by catalysing the regeneration of NADH to NAD^+ by providing lactate dehydrogenase and pyruvate. Reaction mixtures contained, in 1 ml volume, 75 mM KPi buffer, pH 7.0, 0.125 mM vanillin, 1.2 mM Na pyruvate, lactate dehydrogenase (rabbit muscle), 1.1 U and NAD^+, 0.5 mM.
# In order to confirm the function of this gene, expression was determined in E. coli strain DH5, which contained the vector pUC18 into which the full-length open reading frame had been inserted such that expression was from the lac promoter on the vector. Vanillin: NAD^+ oxidoreductase activity was confirmed and was absent from a control strain bearing the unmodified pUC 18 vector. Using the enzyme assay described in Example 2, activity with vanillin as substrate was determined as 3.0 nkat/mg of protein; activity with salicylaldehyde was 2.8 nkat/mg.
# [6] = system: trans-ferulate: CoASH ligase; assay: trans-ferulate:CoASH ligase assay, initial increase in absorbance at 345 nm; type: biochemical, Pseudomonas fluorescens; conditions: crude extracts of Ps. fluorescens AN103; initial rate at absorbance maximum of the SCoA thioester
# Description: as §1
# [7] = substrate 10 mM on MM Medium, 48 h at 25° C., absorbance at 600 nm
# [8] = Pseudomonas fluorescens, substrate 10 mM on MM Medium, 48 h at 25° C., absorbance at 600 nm
structure (smiles),measurement,setting,value
"CC(C)(COP(=O)(O)OP(=O)(O)OC[C@H]1O[C@@H](n2cnc3c(N)ncnc32)[C@H](O)[C@@H]1OP(=O)(O)O)[C@@H](O)C(=O)NCCC(=O)NCCSC(=O)/C=C/c1ccc(O)c(O)c1 (relative stereo) [Caffeoyl SCoA, trans-caffeoyl SCoA]","Activity, utilisation of trans-p-hydroxycinnamoyl SCoA thioester",[1],0.36 nkat/mg of protein
"COc1cc(C=CC(=O)SCCNC(=O)CCNC(=O)[C@H](O)C(C)(C)COP(=O)(O)OP(=O)(O)OC[C@H]2O[C@@H](n3cnc4c(N)ncnc43)[C@H](O)[C@@H]2OP(=O)(O)O)ccc1O (relative stereo) [Feruloyl SCoA, trans-feruloyl SCoA]","Activity, utilisation of trans-p-hydroxycinnamoyl SCoA thioester",[1],0.60 nkat/mg of protein
"CC(C)(COP(=O)(O)OP(=O)(O)OC[C@H]1O[C@@H](n2cnc3c(N)ncnc32)[C@H](O)[C@@H]1OP(=O)(O)O)[C@@H](O)C(=O)NCCC(=O)NCCSC(=O)/C=C/c1ccc(O)cc1 (relative stereo) [p-Coumaroyl SCoA, trans-4-coumaroyl SCoA]","Activity, utilisation of trans-p-hydroxycinnamoyl SCoA thioester",[1],0.72 nkat/mg of protein
"O=C(O)/C=C/c1ccc2c(c1)OCO2 [3,4-methylenedioxy-trans-cinnamate]","Use as substrate by enzyme activities I, II and III",[2],poor substrates
CC(=O)O [Acetate],Relative Growth (%),[3]; [7],47%
"O=C(O)/C=C/c1ccc(O)c(O)c1 [Caffeic acid, 3,4-dihydroxy-trans-cinnamate]",activity at 10000 µM,[3]; [8],79%
O=C(O)C=Cc1ccccc1 [Cinnamic acid],activity at 10000 µM,[3]; [8],0%
same,"Use as substrate by enzyme activities I, II and III",[2],poor substrates
"COc1cc(/C=C/C(=O)O)ccc1O [Ferulic acid, 4-hydroxy-3-methoxy-trans-cinnamate]",activity at 10000 µM,[3]; [8],100%
"COc1cc(C(O)CC(=O)SCCNC(=O)CCNC(=O)[C@H](O)C(C)(C)COP(=O)(O)OP(=O)(O)OC[C@H]2O[C@@H](n3cnc4c(N)ncnc43)[C@H](O)[C@@H]2OP(=O)(O)O)ccc1O (stereo partly drawn) [HMPHP SCoA, 4-hydroxy-3-methoxyphenyl-β-hydroxypropionyl SCoA]",Metabolism by cell-free extract,"[4]; incubated with cell-free extract, absence of NAD+","converted rapidly to acetyl SCoA and vanillin, in equimolar proportions"
CO [Methanol],activity at 10000 µM,"[3]; Pseudomonas fluorescens, 48 h",0%
O=C(O)c1ccc(O)c(O)c1 [Protocatechuic acid],activity at 10000 µM,"[3]; Pseudomonas fluorescens, 48 h",77%
O=Cc1ccc(O)c(O)c1 [Protocatechuic aldehyde],Relative Growth (%),[3]; [7],0%
COc1cc(/C=C/C(=O)O)cc(OC)c1O [Sinapic acid],activity at 10000 µM,[3]; [8],0%
COc1cc(C(=O)O)ccc1O [Vanillic acid],activity at 10000 µM,[3]; [8],140%
"COc1cc(C=O)ccc1O [Vanillin, 4-hydroxy-3-methoxybenzaldehyde]",activity at 1000 µM,"[3]; Pseudomonas fluorescens, vanillin 1 mM on MM Medium, 48 h at 25° C., absorbance at 600 nm",< 100%
same,Effect on growth of strain AN103,[3]; concentrations higher than the low concentrations (<1 mM),growth-inhibitory
same,Activity as substrate of vanillin:NAD+ oxidoreductase,[5],3.0 nkat/mg of protein
"O=C(O)/C=C/c1ccc(O)cc1 [p-Coumarate, 4-hydroxy-trans-cinnamate]","Activity, formation of CoASH thioester",[6],0.37 nkat/mg protein
same,"Use as substrate by enzyme activities I, II and III",[2],reasonable efficiency
O=Cc1ccccc1O [salicylaldehyde],Activity as substrate of vanillin:NAD+ oxidoreductase,[5],2.8 nkat/mg
"COc1cc(C(=O)SCCNC(=O)CCNC(=O)[C@H](O)C(C)(C)COP(=O)(O)OP(=O)(O)OC[C@H]2O[C@@H](n3cnc4c(N)ncnc43)[C@H](O)[C@@H]2OP(=O)(O)O)ccc1O [vanilloyl SCoA, 4hydroxy-3-methoxybenzoyl SCoA]",Metabolism to vanillin by cell-free extracts,[4]; in the presence of NADH,not to be metabolised to vanillin
